pIC50: −log10 of the molar value.
Target: T1, farnesyl protein transferase (FPT) (Rattus norvegicus, UniProt Q02293+Q04631)
T1 construct: were partially purified from rat brain by ammonium sulfate fractionation; from tissue; host or cells: rat brain
Assay: Inhibition of farnesyl protein transferase (FPT), in vitro enzyme assay, Ras-CVLS farnesylation
Format: biochemical, rat (partially purified rat brain)
Details: Table 22
Protocol: Two forms of val^12 -Ha-Ras protein were prepared as substrates for these enzymes, differing in their carboxy terminal sequence. One form terminated in cysteine-valine-leucine-serine (Ras-CVLS) the other in cystein-valine-leucine-leucine (Ras-CVLL). Ras-CVLS is a substrate for the famesyl protein transferase while Ras-CVLL is a substrate for geranylgeranyl protein transferase I. The cDNAs encoding these proteins were constructed so that the proteins contain an amino-terminal extension of 6 histidine residues. Both proteins were expressed in Escherichia coli and purified using metal chelate affinity chromatography. The radiolabelled isoprenyl pyrophosphate substrates, [^3 H]farnesyl pyrophosphate and [^3 H]geranylgeranyl pyrophosphate, were purchased from DuPont/New England Nuclear.
The reaction was allowed to proceed for 30 minutes at room temperature and then stopped with 0.5 ml of 4% sodium dodecyl sulfate (SDS) followed by 0.5 ml of cold 30% trichloracetic acid (TCA). Samples were allowed to sit on ice for 45 minutes and precipitated Ras protein was then collected on GF/C filter paper mats using a Brandel cell harvester. Filter mats were washed once with 6% TCA, 2% SDS and radioactivity was measured in a Wallac 1204 Betaplate BS liquid scintillation counter. Percent inhibition was calculated relative to the DMSO vehicle control.

| SMILES | pIC50 |
| --- | --- |
| O=C(Cc1ccnc(-n2ccnc2)c1)N1CCC(C2c3ccc(Cl)cc3CCc3cc(Br)cnc32)CC1 (stereo not drawn) [Example 410-T] | 5.74 |
| CN1CCN(c2cc(CC(=O)N3CCC(C4c5ccc(Cl)cc5CCc5cc(Br)cnc54)CC3)ccn2)CC1 (stereo not drawn) [Example 410-U] | 5.30 |
| CSc1cc(CC(=O)N2CCC(C3c4ccc(Cl)cc4CCc4cc(Br)cnc43)CC2)ccn1 (stereo not drawn) [Example 410-V] | 5.93 |
| CS(=O)(=O)c1cc(CC(=O)N2CCC(C3c4ccc(Cl)cc4CCc4cc(Br)cnc43)CC2)ccn1 (stereo not drawn) [Example 410-W] | 5.94 |
| CSCC[C@H](N)C(=O)N1CCC(CC(=O)N2CCN(C3c4ccc(Cl)cc4CCc4cccnc43)CC2)CC1 (stereo partly drawn) [Example 433-B] | 5.72 |
| C[C@H](N)C(=O)N1CCC(CC(=O)N2CCN(C3c4ccc(Cl)cc4CCc4cccnc43)CC2)CC1 (stereo partly drawn) [Example 433] | 5.60 |

From patent US5807852A, “Tricyclic amide and urea compounds useful for inhibition of G-protein function and for treatment of proliferative diseases” (Schering Corporation, priority 1995, dated 1998)
